{"source": "PubChem BioAssay AID1259407", "about": "(Chemical Carcinogenesis Research Information System (CCRIS), 2018)", "test_system": "CCRIS mutagenicity, Ames/micronucleus/aberration tests", "experiment": "CCRIS mutagenicity studies", "key": {"[1]": {"conditions": "Test System: AMES SALMONELLA TYPHIMURIUM, Strain/Indicator: TA98, Metabolic Activation: NONE, Method: STANDARD PLATE"}, "[2]": {"conditions": "Test System: AMES SALMONELLA TYPHIMURIUM, Strain/Indicator: TA98, Metabolic Activation: RAT, LIVER, S-9, AROCLOR 1254, Method: STANDARD PLATE"}, "[3]": {"conditions": "Test System: AMES SALMONELLA TYPHIMURIUM, Strain/Indicator: TA100, Metabolic Activation: NONE, Method: STANDARD PLATE"}, "[4]": {"conditions": "Test System: AMES SALMONELLA TYPHIMURIUM, Strain/Indicator: TA100, Metabolic Activation: RAT, LIVER, S-9, AROCLOR 1254, Method: STANDARD PLATE"}, "[5]": {"conditions": "Test System: AMES SALMONELLA TYPHIMURIUM, Strain/Indicator: TA1535, Metabolic Activation: NONE, Method: STANDARD PLATE"}, "[6]": {"conditions": "Test System: AMES SALMONELLA TYPHIMURIUM, Strain/Indicator: TA1535, Metabolic Activation: RAT, LIVER, S-9, AROCLOR 1254, Method: STANDARD PLATE"}, "[7]": {"conditions": "Test System: AMES SALMONELLA TYPHIMURIUM, Strain/Indicator: TA1537, Metabolic Activation: NONE, Method: STANDARD PLATE"}, "[8]": {"conditions": "Test System: AMES SALMONELLA TYPHIMURIUM, Strain/Indicator: TA1537, Metabolic Activation: RAT, LIVER, S-9, AROCLOR 1254, Method: STANDARD PLATE"}}, "note": "Active and inactive are the calls of the source. No rule for the calls is given here.", "data": [{"compound": "O=C(O)Cc1ccc(O)c(O)c1", "values": [{"measurement": "mutagenic call", "setting": "Test System: AMES SALMONELLA TYPHIMURIUM, Strain/Indicator: TA92, Metabolic Activation: NONE, Method: PREINCUBATION", "value": "inactive; negative"}, {"measurement": "mutagenic call", "setting": "Test System: AMES SALMONELLA TYPHIMURIUM, Strain/Indicator: TA97, Metabolic Activation: NONE, Method: PREINCUBATION", "value": "inactive; negative"}, {"measurement": "mutagenic call", "setting": "Test System: AMES SALMONELLA TYPHIMURIUM, Strain/Indicator: TA100, Metabolic Activation: NONE, Method: PREINCUBATION", "value": "inactive; negative"}, {"measurement": "mutagenic call", "setting": "Test System: AMES SALMONELLA TYPHIMURIUM, Strain/Indicator: TA102, Metabolic Activation: NONE, Method: PREINCUBATION", "value": "active; positive"}, {"measurement": "mutagenic call", "setting": "Test System: AMES SALMONELLA TYPHIMURIUM, Strain/Indicator: TA104, Metabolic Activation: NONE, Method: PREINCUBATION", "value": "active; positive"}, {"measurement": "mutagenic call", "setting": "Test System: AMES SALMONELLA TYPHIMURIUM, Strain/Indicator: TA1535, Metabolic Activation: NONE, Method: PREINCUBATION", "value": "inactive; negative"}, {"measurement": "mutagenic call", "setting": "Test System: AMES SALMONELLA TYPHIMURIUM, Strain/Indicator: TA1537, Metabolic Activation: NONE, Method: PREINCUBATION", "value": "inactive; negative"}, {"measurement": "mutagenic call", "setting": "Test System: CHINESE HAMSTER V-79, Strain/Indicator: V-79/6-THIOGUANINE, Metabolic Activation: NONE, Method: STANDARD PLATE", "value": "active; positive"}]}, {"compound": "CN1Cc2c(N)cccc2C(c2ccccc2)C1", "note": "(configuration not stated)", "values": [{"measurement": "mutagenic call", "setting": "[1]", "value": "inactive; negative"}, {"measurement": "mutagenic call", "setting": "[2]", "value": "inactive; negative"}, {"measurement": "mutagenic call", "setting": "[3]", "value": "inactive; negative"}, {"measurement": "mutagenic call", "setting": "[4]", "value": "inactive; negative"}, {"measurement": "mutagenic call", "setting": "[5]", "value": "inactive; negative"}, {"measurement": "mutagenic call", "setting": "[6]", "value": "inactive; negative"}, {"measurement": "mutagenic call", "setting": "[7]", "value": "inactive; negative"}, {"measurement": "mutagenic call", "setting": "[8]", "value": "inactive; negative"}]}, {"compound": "O=C(c1ccc([N+](=O)[O-])cc1)n1ncc(Cl)c(Cl)c1=O", "values": [{"measurement": "mutagenic call", "setting": "[1]", "value": "inactive; negative"}, {"measurement": "mutagenic call", "setting": "[2]", "value": "inactive; negative"}, {"measurement": "mutagenic call", "setting": "[3]", "value": "active; positive"}, {"measurement": "mutagenic call", "setting": "[4]", "value": "active; positive"}, {"measurement": "mutagenic call", "setting": "[5]", "value": "active; positive"}, {"measurement": "mutagenic call", "setting": "[6]", "value": "active; positive"}, {"measurement": "mutagenic call", "setting": "[7]", "value": "inactive; negative"}, {"measurement": "mutagenic call", "setting": "[8]", "value": "inactive; negative"}]}, {"compound": "O=c1c2c(c3c(ccc4ccc[nH]c43)c1O)O2", "values": [{"measurement": "mutagenic call", "setting": "[3]", "value": "active; positive"}]}, {"compound": "CNc1nncc2ccccc12", "values": [{"measurement": "mutagenic call", "setting": "[3]", "value": "active; positive"}, {"measurement": "mutagenic call", "setting": "Test System: AMES SALMONELLA TYPHIMURIUM, Strain/Indicator: TA100, Metabolic Activation: RAT, LIVER, S-9, PHENOBARBITAL, Method: STANDARD PLATE", "value": "active; positive"}, {"measurement": "mutagenic call", "setting": "Test System: UDS RAT HEPATOCYTES, Strain/Indicator: THY INCORP, Metabolic Activation: NONE, Method: AUTORADIOGRAPHY", "value": "active; positive"}, {"measurement": "mutagenic call", "setting": "Test System: UDS RODENT HEPATOCYTES, Strain/Indicator: THY INCORP (NON-S-PHASE), Metabolic Activation: HOST-MEDIATED, Method: IN VIVO-IN VITRO", "value": "inactive; negative"}]}, {"compound": "Oc1cc2ccc3cccc4cc5c(c1-c1ccccc1-5)c2c34", "values": [{"measurement": "mutagenic call", "setting": "[4]", "value": "inactive; negative"}]}, {"compound": "COC(=O)c1cc2c([nH]c3ccc([N+](=O)[O-])cc32)c(-c2ccccc2)n1", "values": [{"measurement": "mutagenic call", "setting": "Test System: AMES SALMONELLA TYPHIMURIUM, Strain/Indicator: TA98(NR), Metabolic Activation: NONE, Method: STANDARD PLATE", "value": "inactive; negative"}, {"measurement": "mutagenic call", "setting": "Test System: AMES SALMONELLA TYPHIMURIUM, Strain/Indicator: TA98(NR), Metabolic Activation: RAT, LIVER, S-9, AROCLOR 1254, Method: STANDARD PLATE", "value": "active; positive"}]}]}
